Source: PMC7073886, “Structure–Bioactivity Relationships of Lapatinib Derived Analogs against Schistosoma mansoni” (ACS Medicinal Chemistry Letters, 2020)
Values after ≈ are worked out from the molar mass of the structure shown. Where two headings read alike, the source gives them in different places.

Legend:
[1] = Human plasma protein binding (equilibrium dialysis); type: in vitro ADME; conditions: for human PPB (plasma protein binding): 10 µM
[2] = Human liver microsomal Clint; type: in vitro ADME; conditions: for HLM Clint / microsomal CLint: human liver microsomes, intrinsic clearance; for microsomal CLint: read-out: HLM Clint
[3] = Aqueous pH 7.4 solubility; type: physicochemical; conditions: for solubility: phosphate buffer pH 7.4, 25 °C, 20-24 h, read-out: aq sol (aqueous solubility)
[4] = Log D7.4 shake-flask octanol-water; type: physicochemical; conditions: pH 7.4
adult S. mansoni = assay: Phenotypic screen of adult S. mansoni worms, severity scores and descriptors; type: cell-based, Schistosoma mansoni; conditions: for Descriptors (10 µM) 1 h / Severity Scores (10 μM) 1 h / Descriptors (10 µM) 5 h / Severity Scores (10 μM) 5 h / Descriptors (10 µM) 24 h / Severity Scores (10 μM) 24 h / Descriptors (10 µM) 48 h / Severity Scores (10 μM) 48 h: adult S. mansoni; for Descriptors (10 µM) 1 h / Descriptors (10 µM) 5 h / Descriptors (10 µM) 24 h / Descriptors (10 µM) 48 h: phenotypic descriptors; for Severity Scores (10 μM) 1 h / Severity Scores (10 μM) 5 h / Severity Scores (10 μM) 24 h / Severity Scores (10 μM) 48 h: scale 0 (no activity) to 4 (maximal activity); for bioactivity against adult S. mansoni: adult schistosomes; for Severity Scores (10 μM) 1 h / Severity Scores (10 μM) 5 h / Severity Scores (10 μM) 24 h / Severity Scores (10 μM) 48 h / bioactivity against adult S. mansoni: 10 μM
Summary of the method: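 Adult S. mansoni (NMRI isolate, ≥42 days old) were co-incubated with compounds and changes in motility, density, shape and adherence recorded visually over time and concentration. Descriptors converted to severity scores from 0 (no activity) to 4 (maximal).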

HepG2 cells = assay: Drug toxicity to HepG2 cells (MTT); type: cell-based; conditions: for HepG2 TC50: HepG2 cells, 48 hours incubation, MTT; for increase in toxicity against HepG2 cells compared with 3: relative to 3
Rat hepatocyte Clint = type: in vitro ADME; conditions: rat hepatocytes, intrinsic clearance; for hepatocyte CLint: read-out: RH CLint

Row | SMILES | human PPB (plasma protein binding) ([1]; 37 °C) [%] | HLM Clint [2] [μL/min/mg protein] | solubility [3] [µM] | LogD 7.4 [4] | Descriptors (10 µM) 1 h (adult S. mansoni) | Severity Scores (10 μM) 1 h (adult S. mansoni) | Descriptors (10 µM) 5 h (adult S. mansoni) | Severity Scores (10 μM) 5 h (adult S. mansoni) | Descriptors (10 µM) 24 h (adult S. mansoni) | Severity Scores (10 μM) 24 h (adult S. mansoni) | Descriptors (10 µM) 48 h (adult S. mansoni) | Severity Scores (10 μM) 48 h (adult S. mansoni) | HepG2 TC50 (HepG2 cells) [µM] | RH CLint (Rat hepatocyte Clint) [µL/min/10^6 cells] | other results
1 | O=S(=O)(c1ccc(-c2ccc3nccc(N[C@@H]4CCCC[C@H]4O)c3c2)cc1)N1CCOCC1 (relative stereo) [S3d] | 72 | 43 | 140 (≈ 65.5 µg/mL) | 2.4 | none | 0 | none | 0 | none | 0 | none | 0 | 32 | 30 | 
2 | Cc1cnc(Nc2ccnc3cc(-c4cnc(N5CCN(C)CC5)nc4)ccc23)cn1 [5a] |  |  |  |  |  | 1 |  | 4 |  | 4 |  | 4 |  |  | fraction unbound at 10 µM ([1]; pH 7.4, 37 °C, read-out: human PPB (plasma protein binding) (converted)): 0.07; microsomal CLint [2]: 240 µL/min/mg; solubility ([3]; aqueous buffer, thermodynamic from solid): 13 µM (≈ 5.36 µg/mL); logD [4]: 3.6; bioactivity against adult S. mansoni (adult S. mansoni): severe phenotypic response after just 5 h; increase in toxicity against HepG2 cells compared with 3 (HepG2 cells): greater than 1.9 fold; hepatocyte CLint (Rat hepatocyte Clint): 150 µL/min/1e6 cells
3 | Cc1cc2c(Nc3cnccn3)ccnc2cc1-c1cnc(N2CCN(C)CC2)nc1 [8a] |  |  |  |  | Unc, on sides | 2 |  |  |  | 4 |  | 4 |  |  | decrease in aqueous solubility compared with 3 ([3]; relative to 3): > 2200 fold; logD [4]: 3.3; bioactivity against adult S. mansoni (adult S. mansoni): severe phenotypic response by 5 h; increase in toxicity against HepG2 cells compared with 3 (HepG2 cells): greater than 5 fold
4 | Cc1cc2c(Nc3cnccn3)ccnc2cc1-c1cnc(N2CCCN(C)CC2)nc1 [8b] |  |  |  |  |  | 4 |  | 4 |  | 4 |  | 4 |  |  | fraction unbound ([1]; pH 7.4, 10 µM, 37 °C, read-out: human PPB (plasma protein binding) (converted)): 0.18; clearance increase compared to 8a ([2]; relative to 8a): 2 fold; improvement in solubility compared to 8a ([3]; relative to 8a): > 33,500 fold; logD [4]: 2.5; bioactivity against adult S. mansoni (adult S. mansoni): severe phenotypic response recorded after 1 h; hepatocyte CLint (Rat hepatocyte Clint): 42 µL/min/1e6 cells
5 | CS(=O)(=O)N1CCN(c2ncc(-c3ccc4c(Nc5cnccn5)ccnc4c3)cn2)CC1 [S2a] | 96 | 44 | 0.06 (≈ 0.0278 µg/mL) | 3.1 | none | 0 | none | 0 | none | 0 | none | 0 | > 33 | 28 | 
6 | C[S+]([O-])CCNc1ncc(-c2ccc3c(Nc4cnccn4)ccnc3c2)cn1 (centres unmarked) [S2b] |  | 6 | 11 (≈ 4.46 µg/mL) | 1.7 | none | 0 | none | 0 | none | 0 |  |  | > 37 | 7.6 | 
7 | CN(C)CCN(C)c1ncc(-c2ccc3c(Nc4cnccn4)ccnc3c2)cn1 [S2c] |  | 45 | 630 (≈ 252 µg/mL) | 2.3 | none | 0 | none | 0 | none | 0 | none | 0 | > 38 | 55 | 
8 | c1cnc(Nc2ccnc3cc(-c4cnc(N5CCOCC5)nc4)ccc23)cn1 [S2d] | 96 | > 300 | 0.7 (≈ 0.27 µg/mL) | 3.7 | Shrunk, S | 2 |  | 1 | none | 0 | none | 0 | 39 | 93 | 
9 | O=S(=O)(c1ccc(-c2ccc3nccc(Nc4ccncn4)c3c2)cc1)N1CCOCC1 [S3a] | 96 | 210 | 1.4 (≈ 0.627 µg/mL) | 3.3 | none | 0 | none | 0 | none | 0 | none | 0 | > 34 | 32 | 
10 | CN1CCC(Nc2ccnc3ccc(-c4ccc(S(=O)(=O)N5CCOCC5)cc4)cc23)CC1 [S3c] | 58 | 23 | 790 (≈ 369 µg/mL) |  | none | 0 | none | 0 | none | 0 | none | 0 | 26 | 3.7 | 
11 | CN1CCCN(c2ccc(Nc3ccc4c(Nc5cnccn5)ccnc4c3)cc2)CC1 [S3k] |  |  |  |  | none | 0 | none | 0 | S, on sides | 2 | S, on sides | 2 | 17 |  | microsomal CLint [2]: 30 µL/min/mg; hepatocyte CLint (Rat hepatocyte Clint): 14 µL/min/1e6 cells
12 | C[C@@H]1CNCCN1C(=O)c1ccc(-c2cnc(N3CCCN(C)CC3)nc2)cc1N [S4c] | 42 |  | 930 (≈ 381 µg/mL) | -0.4 | none | 0 | none | 0 | none | 0 |  |  | > 37 | 2.6 | 
13 | C[C@@H]1CNCCN1C(=O)c1ccc(-c2cccc(N3CCOCC3)c2)cc1N [S4d] | 63 |  | 950 (≈ 361 µg/mL) | 1 | none | 0 | none | 0 | none | 0 | none | 0 | > 40 |  | 
